Laboratory results from patent US8367687B2, “Pyrazole derivatives” (Novartis AG, priority 2007, dated 2013).
Like-named read-outs stand apart in the source and are kept apart here.

Experiments:
[1] = target: CDK4 (Homo sapiens, UniProt P11802); experiment: CDK4 HTRF; assay type: biochemical
[2] = target: hCDK1/B (Homo sapiens, UniProt P06493); experiment: hCDK1/B; assay type: biochemical
[3] = target: CDK2 cyA (Homo sapiens, UniProt P24941); experiment: CDK2 cyA IMAP; assay type: biochemical
[4] = tested on: p-pRb/S780; experiment: p-pRb/S780 ELISA Cellular Assay (CDK4 ELISA assay); assay type: cell-based; conditions: cells treated for 24 hrs
Experimental: Biological Activity p-pRb/S780 ELISA Cellular Assay
Maxisorp plates (Nunc 442404) are coated with 50 ul of 1 ug/mL total phospholated Retinoblast Protein (pRb) antibody (4H1 Cell Signaling 9309L) diluted in DPBS (Phosphate Buffered Saline) overnight at 4° C. The next day plates are blocked with Superblock in TBST (Pierce 37535) for one hour to overnight—changing block once during that time. Cells are plated at 50-60% confluency in a 96 well plate (Corning 3585) in 100 uL complete media (media containing fetal bovine serum (Gibco 1600-044), 2 mM L-Glutamine (Gibco 25030), and 1% Penicillin/Streptomycin (Gibco 15140-122) and grown overnight in a humidified chamber at 37° C. and 5% CO2. Compounds (in DMSO) are diluted in media to create a 7 point dilution series of compound with concentrations ranging from 110 uM to 0.027 uM. 10 ul of the diluted compounds are added to the cells, with final concentrations on cells ranging from 10 uM to 0.002 uM. Cells are treated for 24 hrs in a humidified chamber at 37° C. and 5% CO2. Following compound incubation, cells are lysed with 40 uL/well lysis buffer (50 mM Tris-HCL pH 7.5 (Invitrogen 15567-027), 120 mM NaCl (Promega V4221), 1 mM EDTA (Gibco 15575-038), 6 mM EGTA (Fisher 02783-100), 1% Nonidet P40 (Fluka R02771). Plates are placed on Titerplate shaker (Labline model 4625) for 5 minutes at 4° C. to lyse cells. After lysis, 10 ul of cell lysate and 50 ul 1×PBS/10% Superblock (Gibco 10010 and Pierce 37535) is added to each well of the precoated and blocked Maxisorp plate and allowed to bind at room temperature for 2 hours on Oribtron Rotator II (Boekel Industries Model 260250). Plates are then washed 3× with 1×TBST (Teknova T9201) using Biotek platewasher equipped with a Biostack. The final wash is not aspirated. The final wash is removed by flicking off and tapping plate on paper towels. ppRbS780 antibody (Cell Signaling 9307L) is diluted 1:1000 in 1×PBS/10% Superblock (Gibco 10010 and Pierce 37535) and 50 ul is added to each well. Plates are then incubated 1 hour on Oribtron Rotator II (Boekel Industries Model 260250). Plates are then washed as previously described. Goat anti-rabbit HRP (Promega W401B) is diluted 1:2500 1×PBS/10% Superblock (Gibco 10010 and Pierce 37535) and 50 ul is added to each well. Plates are then incubated 30 minutes on Oribtron Rotator II. Plates are then washed as previously described. 50 uL Ultra TMB ELISA (Pierce 34028) is then added to each well. Plates are incubated 5-20 minutes until blue color develops. 50 ul 2M Sulfuric acid (Mallinckrodt 2468-46) is then added to each well to stop the reaction. Absorbance at 450 nm for each plate is read on Spectramax Plus (Molecular Devices).

[5] = Table 2, read-out: CDK4 HTRF/ IC50
[6] = Table 2, read-out: CDK2cyA IMAP/ IC50
[7] = Table 2, read-out: p_pRb Cap EL/ IC50_ppRbinh
[8] = Table 1, read-out: CDK2 cyA IMAP
[9] = Table 1, read-out: CDK4 ELISA assay IC50

Sequence of CDK4 (P11802 whole entry): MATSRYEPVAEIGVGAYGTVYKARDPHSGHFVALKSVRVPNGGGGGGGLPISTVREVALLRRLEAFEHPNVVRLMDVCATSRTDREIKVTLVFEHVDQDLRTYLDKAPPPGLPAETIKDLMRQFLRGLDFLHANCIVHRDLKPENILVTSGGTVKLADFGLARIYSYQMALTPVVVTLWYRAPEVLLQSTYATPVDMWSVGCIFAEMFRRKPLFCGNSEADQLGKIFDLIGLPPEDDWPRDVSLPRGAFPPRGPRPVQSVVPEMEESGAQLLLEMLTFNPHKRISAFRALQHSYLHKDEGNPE
Sequence of CDK4 (P24385 whole entry partner): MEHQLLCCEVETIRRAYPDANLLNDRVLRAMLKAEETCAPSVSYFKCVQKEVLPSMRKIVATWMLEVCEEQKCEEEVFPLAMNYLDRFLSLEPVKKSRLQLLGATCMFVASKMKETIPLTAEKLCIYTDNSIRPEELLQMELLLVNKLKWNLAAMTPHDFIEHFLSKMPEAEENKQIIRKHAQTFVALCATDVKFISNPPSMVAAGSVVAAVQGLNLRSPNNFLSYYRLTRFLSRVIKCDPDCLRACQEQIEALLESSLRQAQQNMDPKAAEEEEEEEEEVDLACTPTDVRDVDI
Sequence of hCDK1/B (P06493 whole entry): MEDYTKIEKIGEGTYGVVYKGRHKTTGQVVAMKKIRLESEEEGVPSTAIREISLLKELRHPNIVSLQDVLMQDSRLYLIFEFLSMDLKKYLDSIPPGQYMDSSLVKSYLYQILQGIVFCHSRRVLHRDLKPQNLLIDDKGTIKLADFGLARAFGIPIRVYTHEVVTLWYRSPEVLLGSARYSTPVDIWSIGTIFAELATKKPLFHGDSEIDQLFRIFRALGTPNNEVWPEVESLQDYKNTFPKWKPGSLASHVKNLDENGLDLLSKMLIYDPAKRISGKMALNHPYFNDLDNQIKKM
Sequence of hCDK1/B (P14635 whole entry partner): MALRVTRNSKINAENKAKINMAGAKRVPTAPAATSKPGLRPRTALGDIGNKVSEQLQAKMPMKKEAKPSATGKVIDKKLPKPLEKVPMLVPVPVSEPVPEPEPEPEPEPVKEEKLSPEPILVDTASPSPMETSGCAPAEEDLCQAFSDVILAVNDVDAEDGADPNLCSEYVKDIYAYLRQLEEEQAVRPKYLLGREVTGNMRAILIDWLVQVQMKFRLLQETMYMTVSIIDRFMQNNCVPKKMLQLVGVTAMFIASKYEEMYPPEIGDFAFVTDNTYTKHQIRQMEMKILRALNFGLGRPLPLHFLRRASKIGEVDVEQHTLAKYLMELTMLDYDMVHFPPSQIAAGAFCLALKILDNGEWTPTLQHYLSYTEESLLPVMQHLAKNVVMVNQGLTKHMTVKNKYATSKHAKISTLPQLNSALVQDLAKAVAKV

| SMILES | IC50 [1, 5] | IC50 ([2]; Table 2) | IC50 [3, 6] | IC50 [4, 7] | IC50 ([1]; Table 1, read-out: CDK4 HTRF) | IC50 ([2]; Table 1) | IC50 [3, 8] | IC50 [4, 9] |
| --- | --- | --- | --- | --- | --- | --- | --- | --- |
| Cc1n[nH]cc1-c1ccnc(NCc2cccnc2)n1 [Example 127] | < 10 µM | < 15 µM | < 10 µM | < 15 µM |  |  |  |  |
| CC(C)c1n[nH]cc1-c1ccnc(N[C@H]2CCCc3ccccc32)n1 [Example 178] | < 5 µM | < 10 µM | ≥ 15 µM | < 15 µM |  |  |  |  |
| CC(C)c1n[nH]cc1-c1ccnc(NC2CN3CCC2CC3)n1 (centres unmarked) [Example 159] | < 0.05 µM | < 0.5 µM | < 5 µM | < 5 µM |  |  |  |  |
| Cc1n[nH]cc1-c1ccnc(NCCN2CCCCC2)n1 [Example 111] | < 10 µM | ≥ 15 µM | ≥ 15 µM | < 15 µM |  |  |  |  |
| Cc1n[nH]cc1-c1ccnc(NCCCO)n1 [Example 121] | < 5 µM | < 15 µM | < 15 µM | < 15 µM |  |  |  |  |
| Cc1n[nH]cc1-c1ccnc(NC2CCCN(C(=O)OC(C)(C)C)C2)n1 (centres unmarked) [Example 115] | < 10 µM | ≥ 15 µM | ≥ 15 µM | < 15 µM |  |  |  |  |
| CCC(Nc1nccc(-c2c[nH]nc2C(C)C)n1)c1ccccc1 (centres unmarked) [Example 151] | < 0.5 µM | < 1 µM | < 5 µM | < 10 µM |  |  |  |  |
| CC(C)c1n[nH]c(Br)c1-c1ccnc(NC2CCN(C)CC2)n1 [Example 179] | < 0.1 µM | < 5 µM | < 5 µM | < 1 µM |  |  |  |  |
| CC(C)c1[nH]ncc1-c1ccnc(NCC2CCNCC2)c1 [Example 47] |  |  |  |  | < 10 µM | ≥ 15 µM | ≥ 15 µM | < 15 µM |
| CC(C)c1[nH]ncc1-c1ccnc(NCCN2CCCCC2)c1 [Example 31] |  |  |  |  | < 5 µM | ≥ 15 µM | ≥ 15 µM | < 15 µM |
| CC(C)c1[nH]ncc1-c1ccnc(NCCCN(C)C)c1 [Example 16] |  |  |  |  | < 5 µM | ≥ 15 µM | ≥ 15 µM | < 15 µM |
| CC(C)c1n[nH]cc1-c1ccnc(NC2CCc3cc(Cl)ccc32)n1 (centres unmarked) [Example 190] | < 0.5 µM | < 5 µM | < 0.5 µM | < 5 µM |  |  |  |  |
| CC(C)c1n[nH]cc1-c1ccnc(NC2CCN(Cc3ccccc3)CC2)n1 [Example 85] | < 0.05 µM | < 0.5 µM | < 1 µM | < 10 µM |  |  |  |  |
| Cc1n[nH]cc1-c1ccnc(NCc2cc(F)cc(F)c2)n1 [Example 135] | < 1 µM | < 5 µM | < 5 µM | < 15 µM |  |  |  |  |
| CC(C)c1[nH]ncc1-c1ccnc(NC2CCC2)c1 [Example 2] |  |  |  |  | < 0.5 µM | < 0.5 µM | < 0.5 µM | < 1 µM |
| Cc1n[nH]cc1-c1ccnc(NC2CC2)n1 [Example 97] | < 5 µM | < 10 µM | < 10 µM | < 15 µM |  |  |  |  |
| Cc1n[nH]cc1-c1ccnc(NCCCN2CCCC2=O)n1 [Example 131] | < 15 µM | ≥ 15 µM | ≥ 15 µM | < 15 µM |  |  |  |  |

| SMILES | IC50 [1, 5] | IC50 ([2]; Table 2) | IC50 [3, 6] | IC50 [4, 7] | IC50 ([1]; Table 1, read-out: CDK4 HTRF) | IC50 ([2]; Table 1) | IC50 [3, 8] | IC50 [4, 9] |
| --- | --- | --- | --- | --- | --- | --- | --- | --- |
| Cc1n[nH]cc1-c1ccnc(NCc2ccc(F)cc2)n1 [Example 95] | < 5 µM | < 10 µM | < 10 µM | < 15 µM |  |  |  |  |
| COc1ccccc1CNc1nccc(-c2c[nH]nc2C)n1 [Example 130] | < 5 µM | < 10 µM | < 15 µM | < 15 µM |  |  |  |  |
| Cc1n[nH]cc1-c1ccnc(NCC2CC2)n1 [Example 124] | < 5 µM | < 10 µM | < 10 µM | < 15 µM |  |  |  |  |
| CC(C)c1[nH]ncc1-c1ccnc(NCCCNC2CCCCC2)c1 [Example 51] |  |  |  |  | < 5 µM | ≥ 15 µM | ≥ 15 µM | < 15 µM |
| CC(C)c1[nH]ncc1-c1ccnc(NCCN2CCCC2)c1 [Example 17] |  |  |  |  | < 5 µM | ≥ 15 µM | ≥ 15 µM | < 15 µM |
| CC(C)CNc1nccc(-c2c[nH]nc2C(C)C)n1 [Example 163] | < 0.1 µM | < 0.5 µM | < 0.1 µM | < 5 µM |  |  |  |  |
| CC(C)c1n[nH]cc1-c1ccnc(NCCN(C(C)C)C(C)C)n1 [Example 146] | < 5 µM | < 5 µM | ≥ 15 µM | < 15 µM |  |  |  |  |
| Cc1n[nH]cc1-c1ccnc(NCCc2c[nH]c3ccccc23)n1 [Example 116] | < 5 µM | < 5 µM | < 10 µM | < 15 µM |  |  |  |  |
| Cc1n[nH]cc1-c1ccnc(NCCC2CCCN2C)n1 (centres unmarked) [Example 113] | < 10 µM | ≥ 15 µM | ≥ 15 µM | < 15 µM |  |  |  |  |
| Cc1n[nH]cc1-c1ccnc(NCCCN(C)C)n1 [Example 118] | < 15 µM | ≥ 15 µM | ≥ 15 µM | < 15 µM |  |  |  |  |
| CC(C)c1n[nH]cc1-c1ccnc(NC2CCc3ccccc32)n1 (centres unmarked) [Example 174] | < 0.05 µM | < 1 µM | < 1 µM | < 5 µM |  |  |  |  |
| COCCCNc1nccc(-c2c[nH]nc2C)n1 [Example 108] | < 5 µM | < 15 µM | ≥ 15 µM | < 15 µM |  |  |  |  |
| CC(C)c1n[nH]cc1-c1ccnc(N[C@H]2CCc3ccccc32)n1 [Example 175] | < 1 µM | < 5 µM | < 5 µM |  |  |  |  |  |
| CC(C)c1n[nH]cc1-c1ccnc(NCCCN(C)c2ccccc2)n1 [Example 142] | < 5 µM | < 1 µM | < 5 µM |  |  |  |  |  |
| Cc1[nH]nc(C(C)C)c1-c1ccnc(NC2CCN(C)CC2)n1 [Example 185] | < 5 µM | ≥ 15 µM | ≥ 15 µM |  |  |  |  |  |
| CN1CCC(Nc2cc(-c3cn[nH]c3C3CCCC3)ccn2)CC1 [Example 79] |  |  |  |  | < 5 µM | < 10 µM | ≥ 15 µM |  |
| CC(C)c1[nH]ncc1-c1ccnc(NCCCn2ccnc2)c1 [Example 41] |  |  |  |  | < 5 µM | < 0.5 µM | < 1 µM |  |
